Assay [1] has as its target Mitogen-activated protein kinase 1 (Homo sapiens, UniProt P28482). Nature of the assay: Selectivity interaction (Upstate Kinase Profiler service (Millipore)) EUB0000056c MAPK1. The settings on record: at 1 µM.
The target in assay [2] is Serine/threonine-protein kinase NIM1 (Homo sapiens, UniProt Q8IY84). The conditions noted are these: at 10 µM.
The target in assay [3] is Tyrosine-protein kinase Blk (Homo sapiens) (UniProt P51451). Put plainly: Selectivity interaction (KinomeScan (DiscoverX)) EUB0001049a BLK. The conditions noted are these: at 1 µM.
Assay [4] addresses Serine/threonine-protein kinase MARK2 (Homo sapiens) (UniProt Q7KZI7). Put plainly: Selectivity interaction (KinomeScan (DiscoverX)) EUB0001049a MARK2. The settings on record: at 1 µM.
Assay [5] deals with Serine/threonine-protein kinase WNK1 (Homo sapiens) (UniProt Q9H4A3). Nature of the assay: Selectivity interaction (KinomeScan (DiscoverX)) EUB0001049a WNK1. The settings on record: at 1 µM.
Assay [6] deals with Serine/threonine-protein kinase Chk2 (Homo sapiens) (UniProt O96017). Nature of the assay: Selectivity interaction (KinomeScan (DiscoverX)) EUB0000655a CHEK2. The settings on record: at 10 µM.
Assay [7] has as its target Dual specificity protein kinase CLK3 (Homo sapiens, UniProt P49761). Nature of the assay: Selectivity interaction (KinomeScan (DiscoverX)) EUB0000607a CLK3. The conditions noted are these: at 10 µM.
Assay [8] addresses Cyclin-dependent kinase 9 (Homo sapiens, UniProt P50750). Nature of the assay: Selectivity interaction (KinomeScan (DiscoverX)) EUB0000229b CDK9. The conditions noted are these: at 10 µM.
Assay [9] concerns the target Cyclin-dependent kinase-like 1 (Homo sapiens) (UniProt Q00532). Nature of the assay: Selectivity interaction (KinomeScan (DiscoverX)) EUB0000229b CDKL1. The settings on record: at 10 µM.
In assay [10] the target is T1, Interleukin-1 receptor-associated kinase 4 (Homo sapiens) (UniProt Q9NWZ3).
T1 sequence (whole entry): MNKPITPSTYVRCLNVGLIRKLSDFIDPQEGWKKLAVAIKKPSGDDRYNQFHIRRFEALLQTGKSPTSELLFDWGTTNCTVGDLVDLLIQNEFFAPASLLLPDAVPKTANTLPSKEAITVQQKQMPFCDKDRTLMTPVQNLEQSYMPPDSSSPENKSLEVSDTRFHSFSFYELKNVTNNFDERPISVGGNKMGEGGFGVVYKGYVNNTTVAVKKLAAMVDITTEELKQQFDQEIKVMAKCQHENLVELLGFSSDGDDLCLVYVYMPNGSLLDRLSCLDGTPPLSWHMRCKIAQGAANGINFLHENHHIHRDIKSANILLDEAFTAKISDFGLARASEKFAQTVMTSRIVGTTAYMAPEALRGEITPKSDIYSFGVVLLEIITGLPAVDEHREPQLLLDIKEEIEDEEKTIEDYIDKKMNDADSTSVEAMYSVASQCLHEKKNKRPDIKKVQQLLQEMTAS
Nature of the assay: Selectivity interaction (KinomeScan (DiscoverX)) EUB0000229b IRAK4. The conditions noted are these: at 10 µM.

The target in assay [11] is Serine/threonine-protein kinase NLK (Homo sapiens, UniProt Q9UBE8). Put plainly: Selectivity interaction (Competition-binding assay (DiscoverX)) EUB0000229b NLK.
Assay [12] addresses Serine/threonine-protein kinase MRCK alpha (Homo sapiens) (UniProt Q5VT25). Nature of the assay: Selectivity interaction (KinomeScan (DiscoverX)) EUB0001619a CDC42BPA. The conditions noted are these: at 1 µM.
Assay [13] deals with Myosin light chain kinase, smooth muscle (Homo sapiens, UniProt Q15746). Put plainly: Selectivity interaction (ActivX KiNativ screen (ex vivo kinase selectivity in human PBMCs)) EUB0001619a MYLK. The class given is cell-based. The conditions noted are these: PBMC, at 1 µM.
For assay [14], the target named is Serine/threonine-protein kinase 38-like (Homo sapiens) (UniProt Q9Y2H1). Put plainly: Selectivity interaction (Kinase panel (KiNativ target engagement assay in Jurkat cells)) EUB0001635a STK38L. The conditions noted are these: Selectivity number of off-targets 0.0, Selectivity number of targets 233.0, Source Knowledge https://www.sciencedirect.com/science/article/pii/S2451945619300674?via%3Dihub, at 1 µM. The class given is cell-based.

The target in assay [15] is T2, Dual specificity tyrosine-phosphorylation-regulated kinase 2 (Homo sapiens) (UniProt Q92630).
T2 sequence (whole entry): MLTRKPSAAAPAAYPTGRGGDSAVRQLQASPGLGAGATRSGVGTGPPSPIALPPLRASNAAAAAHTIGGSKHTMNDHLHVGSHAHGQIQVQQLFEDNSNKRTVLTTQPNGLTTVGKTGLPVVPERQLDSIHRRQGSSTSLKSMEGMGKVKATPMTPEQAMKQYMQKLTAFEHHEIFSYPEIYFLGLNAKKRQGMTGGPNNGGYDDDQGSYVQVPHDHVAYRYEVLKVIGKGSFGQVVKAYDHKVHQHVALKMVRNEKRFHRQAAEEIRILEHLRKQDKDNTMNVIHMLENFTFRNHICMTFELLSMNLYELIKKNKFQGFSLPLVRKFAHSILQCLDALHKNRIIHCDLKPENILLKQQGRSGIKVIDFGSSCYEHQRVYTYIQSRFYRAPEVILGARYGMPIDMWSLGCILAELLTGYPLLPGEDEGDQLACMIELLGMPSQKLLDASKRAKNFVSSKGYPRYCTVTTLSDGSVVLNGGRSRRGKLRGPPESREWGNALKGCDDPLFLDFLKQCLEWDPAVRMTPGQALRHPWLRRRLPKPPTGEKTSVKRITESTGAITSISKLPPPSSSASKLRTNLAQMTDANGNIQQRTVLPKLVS
Put plainly: Selectivity interaction (KinomeScan (DiscoverX)) EUB0000618a DYRK2. The settings on record: at 10 µM.

SMILES strings stand for the structures.

Chain of Myosin light chain kinase, smooth muscle (Q15746 whole entry): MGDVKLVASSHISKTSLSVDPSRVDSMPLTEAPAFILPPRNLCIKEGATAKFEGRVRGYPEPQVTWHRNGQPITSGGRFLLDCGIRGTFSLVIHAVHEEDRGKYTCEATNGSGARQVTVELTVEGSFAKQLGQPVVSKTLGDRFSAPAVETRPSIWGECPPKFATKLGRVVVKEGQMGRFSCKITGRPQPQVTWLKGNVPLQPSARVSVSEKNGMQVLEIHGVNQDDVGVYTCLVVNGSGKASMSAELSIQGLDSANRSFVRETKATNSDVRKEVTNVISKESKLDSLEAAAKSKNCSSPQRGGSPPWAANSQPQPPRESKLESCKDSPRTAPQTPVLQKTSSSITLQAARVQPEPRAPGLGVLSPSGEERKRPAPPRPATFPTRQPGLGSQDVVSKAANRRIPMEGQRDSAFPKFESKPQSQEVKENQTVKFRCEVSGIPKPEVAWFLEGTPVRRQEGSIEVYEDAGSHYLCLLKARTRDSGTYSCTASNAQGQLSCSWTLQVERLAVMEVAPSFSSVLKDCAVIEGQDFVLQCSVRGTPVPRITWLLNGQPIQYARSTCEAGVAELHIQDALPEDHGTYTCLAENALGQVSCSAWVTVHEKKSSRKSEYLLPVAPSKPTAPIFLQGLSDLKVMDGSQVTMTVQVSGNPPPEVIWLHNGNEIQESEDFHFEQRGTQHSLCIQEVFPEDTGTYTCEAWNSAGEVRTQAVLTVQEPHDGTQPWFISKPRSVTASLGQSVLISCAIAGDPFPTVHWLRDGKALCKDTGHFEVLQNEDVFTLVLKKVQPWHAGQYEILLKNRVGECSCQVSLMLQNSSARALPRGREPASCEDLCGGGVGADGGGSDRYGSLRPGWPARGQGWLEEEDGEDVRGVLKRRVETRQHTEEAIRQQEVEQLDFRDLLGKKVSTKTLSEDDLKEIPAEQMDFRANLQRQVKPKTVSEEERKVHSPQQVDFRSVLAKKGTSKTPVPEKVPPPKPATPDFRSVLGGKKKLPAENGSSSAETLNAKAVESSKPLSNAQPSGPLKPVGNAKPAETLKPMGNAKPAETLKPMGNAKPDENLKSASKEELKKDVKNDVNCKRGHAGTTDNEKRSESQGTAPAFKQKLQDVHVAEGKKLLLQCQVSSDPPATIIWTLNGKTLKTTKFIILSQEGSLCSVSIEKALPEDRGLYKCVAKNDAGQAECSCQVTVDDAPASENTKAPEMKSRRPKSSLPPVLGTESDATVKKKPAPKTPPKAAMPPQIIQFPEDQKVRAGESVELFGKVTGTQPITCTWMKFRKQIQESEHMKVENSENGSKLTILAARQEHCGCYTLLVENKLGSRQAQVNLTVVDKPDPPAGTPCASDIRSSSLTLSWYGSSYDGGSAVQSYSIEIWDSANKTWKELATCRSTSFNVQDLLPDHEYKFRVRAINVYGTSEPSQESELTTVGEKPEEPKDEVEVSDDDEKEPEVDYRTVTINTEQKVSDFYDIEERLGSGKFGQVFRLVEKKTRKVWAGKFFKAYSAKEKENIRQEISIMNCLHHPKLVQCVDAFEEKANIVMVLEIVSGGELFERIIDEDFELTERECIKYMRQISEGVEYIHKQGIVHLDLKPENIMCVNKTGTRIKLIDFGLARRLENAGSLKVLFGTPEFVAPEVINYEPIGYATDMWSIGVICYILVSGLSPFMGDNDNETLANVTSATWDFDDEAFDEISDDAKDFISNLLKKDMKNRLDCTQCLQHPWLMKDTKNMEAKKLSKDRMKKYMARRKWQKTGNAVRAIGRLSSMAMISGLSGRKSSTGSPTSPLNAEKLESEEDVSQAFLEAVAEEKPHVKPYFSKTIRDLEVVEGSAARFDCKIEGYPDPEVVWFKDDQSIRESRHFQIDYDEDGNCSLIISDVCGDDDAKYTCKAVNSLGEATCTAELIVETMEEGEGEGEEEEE
Chain of Serine/threonine-protein kinase WNK1 (Homo sapiens) (Q9H4A3 whole entry, looked up): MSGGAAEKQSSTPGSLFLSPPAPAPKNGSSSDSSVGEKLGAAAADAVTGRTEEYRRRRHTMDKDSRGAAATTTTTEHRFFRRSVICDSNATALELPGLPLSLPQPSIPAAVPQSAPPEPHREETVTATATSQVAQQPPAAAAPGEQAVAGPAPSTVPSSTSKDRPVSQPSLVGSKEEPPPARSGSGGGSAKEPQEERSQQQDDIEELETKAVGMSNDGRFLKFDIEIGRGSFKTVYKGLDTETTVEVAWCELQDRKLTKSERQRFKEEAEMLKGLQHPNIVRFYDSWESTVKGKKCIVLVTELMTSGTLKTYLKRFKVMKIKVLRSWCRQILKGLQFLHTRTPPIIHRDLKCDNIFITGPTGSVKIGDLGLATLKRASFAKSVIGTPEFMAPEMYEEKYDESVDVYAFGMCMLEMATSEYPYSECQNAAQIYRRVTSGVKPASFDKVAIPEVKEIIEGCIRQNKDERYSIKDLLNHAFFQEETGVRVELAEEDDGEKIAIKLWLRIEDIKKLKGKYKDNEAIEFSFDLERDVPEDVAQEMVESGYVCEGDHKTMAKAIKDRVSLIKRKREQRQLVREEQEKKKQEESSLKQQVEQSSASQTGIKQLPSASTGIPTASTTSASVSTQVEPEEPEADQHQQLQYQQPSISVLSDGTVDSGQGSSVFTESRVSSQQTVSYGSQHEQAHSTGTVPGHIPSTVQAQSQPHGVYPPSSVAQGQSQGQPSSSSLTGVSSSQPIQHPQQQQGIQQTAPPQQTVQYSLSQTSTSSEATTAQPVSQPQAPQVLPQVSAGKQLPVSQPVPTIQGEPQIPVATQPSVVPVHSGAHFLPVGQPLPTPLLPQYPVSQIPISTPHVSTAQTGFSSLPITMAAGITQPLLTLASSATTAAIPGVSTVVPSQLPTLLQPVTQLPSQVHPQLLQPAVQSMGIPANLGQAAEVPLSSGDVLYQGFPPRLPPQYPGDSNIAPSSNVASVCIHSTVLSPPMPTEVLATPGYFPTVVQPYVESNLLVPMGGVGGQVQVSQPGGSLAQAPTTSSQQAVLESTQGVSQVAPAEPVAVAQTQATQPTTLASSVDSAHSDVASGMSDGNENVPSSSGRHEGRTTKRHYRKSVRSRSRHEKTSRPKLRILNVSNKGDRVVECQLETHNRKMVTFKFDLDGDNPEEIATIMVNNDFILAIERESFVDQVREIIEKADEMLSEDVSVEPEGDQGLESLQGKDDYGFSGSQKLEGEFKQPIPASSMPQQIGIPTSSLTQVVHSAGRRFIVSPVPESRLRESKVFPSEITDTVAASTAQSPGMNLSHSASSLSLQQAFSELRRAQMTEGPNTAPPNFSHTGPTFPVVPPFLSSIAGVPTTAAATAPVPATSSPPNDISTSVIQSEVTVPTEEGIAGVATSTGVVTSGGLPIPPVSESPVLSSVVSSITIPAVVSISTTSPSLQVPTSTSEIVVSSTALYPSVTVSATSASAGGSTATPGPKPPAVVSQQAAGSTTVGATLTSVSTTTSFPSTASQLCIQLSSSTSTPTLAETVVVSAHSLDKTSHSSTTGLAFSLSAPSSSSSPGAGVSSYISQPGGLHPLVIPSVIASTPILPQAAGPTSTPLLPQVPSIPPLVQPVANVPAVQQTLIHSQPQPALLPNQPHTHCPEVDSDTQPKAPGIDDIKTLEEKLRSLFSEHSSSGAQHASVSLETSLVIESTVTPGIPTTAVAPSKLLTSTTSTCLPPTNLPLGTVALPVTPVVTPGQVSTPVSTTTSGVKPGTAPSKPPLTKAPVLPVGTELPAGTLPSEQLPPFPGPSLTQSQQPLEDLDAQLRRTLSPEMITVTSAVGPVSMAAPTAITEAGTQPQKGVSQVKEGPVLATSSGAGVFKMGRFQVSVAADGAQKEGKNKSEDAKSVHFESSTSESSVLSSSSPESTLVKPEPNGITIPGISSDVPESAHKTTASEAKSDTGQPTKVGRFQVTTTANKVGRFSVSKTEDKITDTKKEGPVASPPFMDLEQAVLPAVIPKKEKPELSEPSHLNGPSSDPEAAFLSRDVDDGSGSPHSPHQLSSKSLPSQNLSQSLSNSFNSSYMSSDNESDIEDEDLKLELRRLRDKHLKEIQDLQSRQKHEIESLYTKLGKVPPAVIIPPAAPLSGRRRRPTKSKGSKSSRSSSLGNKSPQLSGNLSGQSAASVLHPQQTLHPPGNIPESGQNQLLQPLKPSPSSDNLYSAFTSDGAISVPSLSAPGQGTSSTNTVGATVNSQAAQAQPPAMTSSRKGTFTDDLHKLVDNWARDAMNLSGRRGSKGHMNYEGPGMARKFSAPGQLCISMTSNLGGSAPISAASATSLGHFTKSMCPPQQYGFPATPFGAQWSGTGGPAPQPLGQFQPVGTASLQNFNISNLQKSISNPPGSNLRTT
Chain of Mitogen-activated protein kinase 1 (P28482 whole entry): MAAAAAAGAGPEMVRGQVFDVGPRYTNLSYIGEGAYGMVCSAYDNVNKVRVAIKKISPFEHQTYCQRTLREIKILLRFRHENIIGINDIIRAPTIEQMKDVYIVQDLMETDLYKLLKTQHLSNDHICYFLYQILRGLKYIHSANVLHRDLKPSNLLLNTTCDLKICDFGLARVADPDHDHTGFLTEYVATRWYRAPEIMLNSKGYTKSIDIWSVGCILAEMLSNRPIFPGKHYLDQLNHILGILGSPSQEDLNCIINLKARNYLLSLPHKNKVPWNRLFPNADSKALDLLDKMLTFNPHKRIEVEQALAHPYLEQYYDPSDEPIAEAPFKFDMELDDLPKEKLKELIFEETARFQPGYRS
Chain of Cyclin-dependent kinase-like 1 (Homo sapiens) (Q00532 whole entry): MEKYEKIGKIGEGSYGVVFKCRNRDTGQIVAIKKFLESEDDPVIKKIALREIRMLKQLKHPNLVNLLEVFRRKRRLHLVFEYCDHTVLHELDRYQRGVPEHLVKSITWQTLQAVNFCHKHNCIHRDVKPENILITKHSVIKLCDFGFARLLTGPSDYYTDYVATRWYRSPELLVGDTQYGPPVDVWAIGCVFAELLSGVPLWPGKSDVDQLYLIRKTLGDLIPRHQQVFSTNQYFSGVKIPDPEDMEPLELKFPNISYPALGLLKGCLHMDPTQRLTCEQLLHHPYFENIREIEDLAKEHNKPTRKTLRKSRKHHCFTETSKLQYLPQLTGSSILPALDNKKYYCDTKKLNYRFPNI

For the compound `Cc1ccc(-c2ccc3c(ccc4sc5c(c43)NC[C@@H](C)NC5=O)n2)cn1`, in [1], the % of inhibition was 1%.
In assay [2], `Cc1cc([C@@H](C)Nc2ccccc2C(=O)O)c2nc(N3CCOCC3)cc(=O)n2c1` [AZD-6482] registered a % of control of 100%.
As to `COc1cc(Nc2nc(C)cc(-c3cnn4nc(OC)ccc34)n2)cc(C(F)(F)F)c1`, the % of control in assay [3] came to 100%; in [4] it was 77%; in [5], 66%.
Turning to `CN(C)CCOc1ccc(-c2nc(-c3ccncc3)c(-c3ccc4c(c3)CC/C4=N\O)[nH]2)cc1`, the % of control in assay [6] is 100%.
`CNC(=O)Nc1ccc(-c2nc(N3CC4CCC(C3)O4)c3cnn(C4CCC5(CC4)OCCO5)c3n2)cc1` returned a % of control in [7] of 31%.
Consider `COc1cc(N(C)c2ccnc3ccc(C(F)(F)F)cc23)cc(OC)c1OC`, for which the figures for the % binding in assay [8], in [9] and in assay [10] were 81%, 70% and 85%, respectively. Further, the dissociation constant (Kd) (usually the equilibrium constant for the complex coming apart) in assay [11] was 6.5 µM.
For `N#Cc1cccc(-c2c[nH]c3ncnc(N4CCOCC4)c23)c1`, the % of control in assay [12] came to 100%. In assay [13], this compound displayed a % of inhibition of 16%.
Turning to `C=CC(=O)Nc1ccc(C(=O)Nc2[nH]nc3c2CN(C(=O)N[C@H](CN(C)C)c2ccccc2)C3(C)C)cc1`, the % of engagement in assay [14] was -0.3%.
In assay [15], `O[C@H]1CC[C@H](Nc2ncc3nc(Nc4c(F)cc(F)cc4F)n([C@H]4CCOC4)c3n2)CC1` gave a % of control of 100%.

The values are drawn from ChEMBL document CHEMBL5465560, “Selectivity Literature for EUbOPEN Chemogenomic Library” (2024).
